Article PMC5344539, “Nematode neuropeptides as transgenic nematicides” (PLoS Pathogens, 2017)

Tests used:
M. incognita J2s [1] = test: Tomato invasion assay with uNLP pre-treated J2s; assay type: in vivo, Meloidogyne incognita; settings: for % Invasion: mean
Procedure: (§1) Predicted uNLPs from both M. incognita and G. pallida were synthesised by EZBiolab and dissolved into pH adjusted ddH2O to make a 5 mM stock which was aliquoted and stored at -20°C. J2s of both M. incognita and G. pallida were incubated for 24 hours in 200 μl of each peptide in a 24 well plate (SPL Lifesciences, South Korea) at a defined concentration.
(§2) Tomato seeds were sterilised with 2.5% NaOCl for 15 minutes, washed 5 times in ddH20 and germinated on 0.5% Murashige and Skoog plates at 23°C. […] Invasion assays were performed by mixing 500 pre-treated M. incognita or G. pallida J2s with agar slurry and a single tomato seedling (2 days post germination) in a 6 well plate. Assays were left at 23°C for 24 hours in the case of M. incognita and at 18°C for 24 hours in the case of G. pallida under a 16 hour light and 8 hour darkness cycle. Seedlings were stained using acid fuschin [69] and the number of nematodes within the roots counted. At least five seedlings were used for M. incognita infections assays, with at least 15 seedlings used for G. pallida infections assays (due to increased variation).

G. pallida J2s = test: Tomato invasion assay with uNLP pre-treated J2s; assay type: in vivo, Globodera pallida; settings: 100 μM uNLP, 24 h; tomato cv. Moneymaker; relative to controls
Procedure: as §1, §2

M. incognita J2s [2] = test: Plant protection assay, C. reinhardtii secreting uNLPs; assay type: in vivo, Meloidogyne incognita; settings: Fig 4A; peptide secreted by transgenic C. reinhardtii culture in tomato invasion arena with 500 J2s; relative to untransformed C. reinhardtii = 100%; mean
Procedure: as §2
B. subtilis were grown overnight in LB media containing ampicillin (100 μg/ml) at 37°C with shaking, and harvested in the log phase of growth determined by measuring OD600nm. Five ml of culture at 0.5 OD was spun down and the pellet mixed with 3 ml of agar slurry and 500 J2s from either G. pallida or M. incognita. C. reinhardtii clones were grown at 23°C with shaking, cultures in the log phase were measured at OD750 and 5 ml of culture at 0.5 OD was pelleted by centrifugation. C. reinhardtii pellets were mixed with 3 ml of agar slurry and 500 J2s from either G. pallida or M. incognita. Plant invasion assays were performed as described above. […]

mixed-stage C. elegans = test: C. elegans chemotaxis assay (non-target); assay type: in vivo, Caenorhabditis elegans; settings: worms soaked in 100 μM uNLP 24 h, counted after 1 h, 8 replicates
Procedure: C. elegans wild-type N2 Bristol strain were obtained from the C. elegans Genomics Center and maintained on a Escherichia coli (strain OP50) lawn on nematode growth medium (NGM) agar plates (3 g/l NaCl, 17 g/l agar, 2.5 g/l peptone, 5 mg/l cholesterol, 25 mM KH2PO4 (pH 6.0), 1 mM CaCl2, 1 mM MgSO4) at 20°C [70]. Chemotaxis assays were performed in a 9 cm diameter Petri dish on NGM agar which was split into a positive and negative side with a central ‘dead zone’ of 1.5 cm diameter. 100 mixed-staged C. elegans were washed three times in M9 buffer and soaked in 100 μM PPN uNLP, or M9 vehicle control for 24 hours. 2 μl of 50 mM sodium acetate, 0.5% pyrazine, 0.5% benzaldehyde or 0.5% diacetyl was spotted onto the positive side, 2 μl of ddH20 was spotted onto the negative side. Pyrazine, benzaldehyde and diacetyl volatile attractants were assayed immediately whereas the water soluble sodium acetate was assayed 18 hours following addition to the plate. Assays were maintained in the dark at 20°C, and counted after 1 hour. Eight replicates were conducted for each C. elegans attraction assay.

[3] = tested on: S. carpocapsae infective juveniles (IJs); test: S. carpocapsae host-finding assay (non-target); assay type: in vivo, Steinernema carpocapsae; settings: Fig 5E; chemotaxis towards insect host Galleria mellonella; 100 IJs incubated 24 h in 100 μM uNLP; n = 5; control 0.2315
Procedure: S. carpocapsae were cultured in Galleria mellonella at 23°C. Infective juveniles (IJs) were collected using a White trap in PBS. Freshly emerged IJs were used for each assay. 100 IJs were incubated for 24 hours in 100 μM of selected uNLPs, and host-finding assays (n = 5) performed as in Morris et al..

Sequence: SFDSFTGPGFTGLD [Mi-NLP-15b, predicted unamidated NLP perfectly conserved between M. incognita and G. pallida; synthesised, also secreted from transgenic microbes]
- effect on host invasion (in words) (M. incognita J2s [1]; 100 μM uNLP, 24 h, tomato cv. Moneymaker, relative to controls): inhibited
- % Invasion (M. incognita J2s [1]; Fig 1B, 500 J2s incubated in 100 μM uNLP for 24 h, single tomato seedling, 24 h at 23°C, normalised to negative control = 100%): 32.22%
- % Invasion (M. incognita J2s [1]; Fig 3B, 100 nM peptide, 24 h, control = 100%): 69.90%
- % Invasion (M. incognita J2s [1]; Fig 3B, 1 µM peptide, 24 h, control = 100%): 59.05%
- % Invasion (M. incognita J2s [1]; Fig 3B, 10 µM peptide, 24 h, control = 100%): 54.62%
- % Invasion (M. incognita J2s [1]; Fig 3B, 100 µM peptide, 24 h, control = 100%): 35.06%
- effect on host invasion (in words) (G. pallida J2s): does not inhibit host invasion
- % Invasion (M. incognita J2s [2]): 10.82%
- CI score (mixed-stage C. elegans; Fig 5A, attractant sodium acetate (50 mM), control 0.4269): 0.3142
- CI score (mixed-stage C. elegans; Fig 5B, attractant pyrazine (0.5%), control 0.4904): 0.4959
- CI score (mixed-stage C. elegans; Fig 5C, attractant benzaldehyde (0.5%), control 0.7026): 0.7032
- CI score (mixed-stage C. elegans; Fig 5D, attractant diacetyl (0.5%), control 0.6638): 0.664
- CI score [3]: 0.2225
